Reference: patent US12448399B2, “Cereblon-based KRAS degrading PROTACs and uses related thereto” (Arvinas Operations, Inc., priority 2023, dated 2025)

Molecular target: T1, KRas-G12D (Homo sapiens, UniProt P01116, G12D)
T1 construct: insert the HiBiT tag onto the N-terminus of one or more of the endogenous KRas alleles; host or cells: AsPC-1 HiBiT-KRasG12D knock-in clone (one tagged allele, two untagged KRasG12D alleles)
Assay: HiBiT Degradation Assay (G12D), AsPC-1 HiBiT-KRasG12D cells, 24 hr
Type: cell-based
Conditions: for Dmax: ASPC1, AsPC-1 cells, maximum degradation observed; for DC50: AsPC-1 cells
How it was run: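 Degradation was read after 24 hr compound exposure (0.5% DMSO, 37° C) by Nano-Glo HiBiT lytic luminescence in AsPC-1 cells carrying a HiBiT tag on one of three KRasG12D alleles. Signal relative to DMSO gave DC50 and Dmax by 4-parameter fit; alamar blue fluorescence monitored cytotoxicity.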

T1 sequence (P01116 1-188 isoform P01116-2 G12D): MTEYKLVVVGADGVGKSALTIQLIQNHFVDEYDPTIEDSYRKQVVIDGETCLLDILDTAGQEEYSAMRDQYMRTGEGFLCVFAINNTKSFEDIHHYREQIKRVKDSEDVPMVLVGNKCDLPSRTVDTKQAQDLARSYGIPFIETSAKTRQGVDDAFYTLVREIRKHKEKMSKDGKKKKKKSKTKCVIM

| Compound | Dmax [%] | DC50 [µM] |
| --- | --- | --- |
| C#Cc1c(F)ccc2cc(O)cc(-c3ncc4c(N5CC6CCC(C5)N6)nc(OC[C@@H]5C[C@@H](OC6CCN(CC7CCN(c8ccc9c(c8)n(C(C)C)c(=O)n9C8CCC(=O)NC8=O)CC7)CC6)CN5C)nc4c3F)c12 (stereo partly drawn) [Compound 95, 3-(5-{4-[(4-{[(3R,5S)-5-{[(4-{3,8-diazabicyclo[3.2.1]octan-3-yl}-7-(8-ethynyl-7-fluoro-3-hydroxynaphthalen-1-yl)-8-fluoropyrido[4,3-d]pyrimidin-2-yl)oxy]methyl}-1-methylpyrrolidin-3-yl]oxy}piperidin-1-yl)methyl]piperidin-1-yl}-2-oxo-3-(propan-2-yl)-2,3-dihydro-1H-1,3-benzodiazol-1-yl)piperidine-2,6-dione] | > 70 | < 5.1 |
| C#Cc1c(F)ccc2cc(O)cc(-c3ncc4c(N5CC6CCC(C5)N6)nc(OCCN5CCC(CN6CCC(CC7CCN(c8cccc9c8CN(C8CCC(=O)NC8=O)C9=O)CC7)CC6)CC5)nc4c3F)c12 (stereo not shown) [Compound 126, 3-{4-[4-({1-[(1-{2-[(4-{3,8-diazabicyclo[3.2.1]octan-3-yl}-7-(8-ethynyl-7-fluoro-3-hydroxynaphthalen-1-yl)-8-fluoropyrido[4,3-d]pyrimidin-2-yl)oxy]ethyl}piperidin-4-yl)methyl]piperidin-4-yl}methyl)piperidin-1-yl]-1-oxo-2,3-dihydro-1H-isoindol-2-yl}piperidine-2,6-dione] | > 70 | < 5.1 |
| C#Cc1c(F)ccc2cc(O)cc(-c3ncc4c(N5CC6CCC(C5)N6)nc(OCCN5CCC(CN6CCC(CC7CCN(c8ccc9c(c8F)n(C)c(=O)n9C8CCC(=O)NC8=O)CC7)CC6)CC5)nc4c3F)c12 (stereo not shown) [Compound 166, 3-{5-[4-({1-[(1-{2-[(4-{3,8-diazabicyclo[3.2.1]octan-3-yl}-7-(8-ethynyl-7-fluoro-3-hydroxynaphthalen-1-yl)-8-fluoropyrido[4,3-d]pyrimidin-2-yl)oxy]ethyl}piperidin-4-yl)methyl]piperidin-4-yl}methyl)piperidin-1-yl]-4-fluoro-3-methyl-2-oxo-2,3-dihydro-1H-1,3-benzodiazol-1-yl}piperidine-2,6-dione] | > 70 | < 5.1 |
| CCc1c(F)ccc2cc(O)cc(-c3ncc4c(N5CC6CCC(C5)N6)nc(OC[C@@H]5C[C@@H](OC6CCN(CC7CCN(c8ccc9c(c8)n(C(C)C)c(=O)n9C8CCC(=O)NC8=O)CC7)CC6)CN5C)nc4c3F)c12 (stereo partly drawn) [Compound 209, 3-(5-{4-[(4-{[(3R,5S)-5-{[(4-{3,8-diazabicyclo[3.2.1]octan-3-yl}-7-(8-ethyl-7-fluoro-3-hydroxynaphthalen-1-yl)-8-fluoropyrido[4,3-d]pyrimidin-2-yl)oxy]methyl}-1-methylpyrrolidin-3-yl]oxy}piperidin-1-yl)methyl]piperidin-1-yl}-2-oxo-3-(propan-2-yl)-2,3-dihydro-1H-1,3-benzodiazol-1-yl)piperidine-2,6-dione] | > 70 | < 5.1 |
| C#Cc1c(F)ccc2cccc(-c3ncc4c(N5CC6CCC(C5)N6)nc(OC[C@]56CCCN5[C@H](CN5CCN(c7ccc8c(c7)CN(C7CCC(=O)NC7=O)C8=O)CC5)CC6)nc4c3F)c12 (stereo partly shown) [Compound 145] | > 70 | 0.1 to 5.25 |
| C#Cc1c(F)ccc2cc(O)cc(-c3ncc4c(N5CC6CCC(C5)N6)nc(OCCN5CCC(CN6CCC(CN7CCN(c8ccc9c(c8F)CN(C8CCC(=O)NC8=O)C9=O)CC7)CC6)CC5)nc4c3F)c12 (stereo not shown) [Compound 223, 3-{5-[4-({1-[(1-{2-[(4-{3,8-diazabicyclo[3.2.1]octan-3-yl}-7-(8-ethynyl-7-fluoro-3-hydroxynaphthalen-1-yl)-8-fluoropyrido[4,3-d]pyrimidin-2-yl)oxy]ethyl}piperidin-4-yl)methyl]piperidin-4-yl}methyl)piperazin-1-yl]-4-fluoro-1-oxo-2,3-dihydro-1H-isoindol-2-yl}piperidine-2,6-dione] | > 70 | < 5.1 |
| CCc1cccc2cc(O)cc(-c3ncc4c(N5CC6CCC(C5)N6)nc(OCCN5CCC6(CC5)CCN(c5ccc7c(c5)C(=O)N(C5CCC(=O)NC5=O)C7=O)CC6)nc4c3F)c12 (stereo not shown) [Compound 19] | – | 0.25 to 1 |
| CCc1c(F)ccc2cc(O)cc(-c3ncc4c(N5CC6CCC(C5)N6)nc(OCCN5CCC(F)(CN6CCN(CC7CCN(c8ccc9c(c8)n(C)c(=O)n9C8CCC(=O)NC8=O)CC7)CC6)CC5)nc4c3F)c12 (stereo not shown) [Compound 181, 3-{5-[4-({4-[(1-{2-[(4-{3,8-diazabicyclo[3.2.1]octan-3-yl}-7-(8-ethyl-7-fluoro-3-hydroxynaphthalen-1-yl)-8-fluoropyrido[4,3-d]pyrimidin-2-yl)oxy]ethyl}-4-fluoropiperidin-4-yl)methyl]piperazin-1-yl}methyl)piperidin-1-yl]-3-methyl-2-oxo-2,3-dihydro-1H-1,3-benzodiazol-1-yl}piperidine-2,6-dione] | > 70 | < 5.1 |
| C#Cc1c(F)ccc2cc(O)cc(-c3ncc4c(C5CC6CCC(C5)N6)nc(OCCN5CCC(CN6CC7(CCN(c8ccc9c(c8)CN(C8CCC(=O)NC8=O)C9=O)CC7)C6)CC5)nc4c3F)c12 (stereo not shown) [Compound 72] | > 70 | < 5.1 |
| C#Cc1c(F)ccc2cc(O)cc(-c3ncc4c(N5CC6CCC(C5)N6)nc(CCCN5CCC(CC6CCN(CC7CCN(c8ccc9c(c8)n(C)c(=O)n9C8CCC(=O)NC8=O)CC7)CC6)CC5)nc4c3F)c12 (stereo not shown) [Compound 230, 3-[5-[4-[[4-[[1-[3-[4-(3,8-diazabicyclo[3.2.1]octan-3-yl)-7-(8-ethynyl-7-fluoro-3-hydroxy-1-naphthyl)-8-fluoro-pyrido[4,3-d]pyrimidin-2-yl]propyl]-4-piperidyl]methyl]-1-piperidyl]methyl]-1-piperidyl]-3-methyl-2-oxo-benzimidazol-1-yl]piperidine-2,6-dione] | – | < 5.1 |
| C#Cc1c(F)ccc2cc(O)cc(-c3ncc4c(N5CC6CCC(C5)N6)nc(OCCN5CCC6(CC5)CCN(CC5(F)CCN(c7ccc8c(c7F)CN(C7CCC(=O)NC7=O)C8=O)CC5)CC6)nc4c3F)c12 (stereo not shown) [Compound 120, 3-(5-{4-[(9-{2-[(4-{3,8-diazabicyclo[3.2.1]octan-3-yl}-7-(8-ethynyl-7-fluoro-3-hydroxynaphthalen-1-yl)-8-fluoropyrido[4,3-d]pyrimidin-2-yl)oxy]ethyl}-3,9-diazaspiro[5.5]undecan-3-yl)methyl]-4-fluoropiperidin-1-yl}-4-fluoro-1-oxo-2,3-dihydro-1H-isoindol-2-yl)piperidine-2,6-dione] | > 70 | < 5.1 |
| C#Cc1c(F)ccc2cc(O)cc(-c3ncc4c(N5CC6CCC(C5)N6)nc(OCC5(CN6CCC(CC7CCN(CC8CCN(c9ccc%10c(c9)n(C)c(=O)n%10C9CCC(=O)NC9=O)CC8)CC7)CC6)CC5)nc4c3F)c12 (stereo not shown) [Compound 196, 3-[5-[4-[[4-[[1-[[1-[[4-(3,8-diazabicyclo[3.2.1]octan-3-yl)-7-(8-ethynyl-7-fluoro-3-hydroxy-1-naphthyl)-8-fluoro-pyrido [4,3-d]pyrimidin-2-yl]oxymethyl]cyclopropyl]methyl]-4-piperidyl]methyl]-1-piperidyl]methyl]-1-piperidyl]-3-methyl-2-oxo-benzimidazol-1-yl]piperidine-2,6-dione] | > 70 | < 5.1 |
| CCc1cccc2cc(O)cc(-c3ncc4c(N5CC6CCC(C5)N6)nc(OCCN5CCC(O[C@H]6C[C@H](OC7CCN(c8cccc9c8CN(C8CCC(=O)NC8=O)C9=O)CC7)C6)CC5)nc4c3F)c12 (stereo partly shown) [Compound 24] | – | 0.1 to 5.25 |
| CCc1cccc2cc(O)cc(-c3ncc4c(N5CC6CCC(C5)N6)nc(OCCN5CCN(c6ccc7c(c6)CN(C6CCC(=O)NC6=O)C7=O)CC5)nc4c3F)c12 (stereo not shown) [Compound 39] | ≤ 25 | 0.25 to 1 |
| CCc1cccc2cc(O)cc(-c3ncc4c(N5CC6CCC(C5)N6)nc(OCCN5CCC(C6CCN(c7ccc8c(c7)C(=O)N(C7CCC(=O)NC7=O)C8=O)CC6)CC5)nc4c3F)c12 (stereo not shown) [Compound 27] | – | 0.25 to 1 |
| CCc1cccc2cc(O)cc(-c3ncc4c(C5CC6CCC(C5)N6)nc(OC[C@@H]5C[C@@H](OC6CCN(CC7CCN(c8ccc9c(c8)CN(C8CCC(=O)NC8=O)C9=O)CC7)CC6)CN5C)nc4c3F)c12 (stereo partly shown) [Compound 71] | > 70 | < 5.1 |
